Test results: US20220127297A1, “Novel Antibacterial 3"-Derivatives Of 4,6-Disubstituted 2,5-Dideoxystreptamine Aminoglycoside Antibiotics” (AGILeBiotics B.V., priority 2018, published 2022)
In brackets after ≈: the same amount, converted by molar mass. Read-outs that look alike come from different tables or passages of the source.

Key:
[1] = system: K. pneumoniae ATCC BAA-1705; assay: MIC 90, resistant ATCC strains of the ESKAPE panel; type: cell-based; details: Klebsiella pneumoniae, ATCCBAA1705, KPC
Description: (§1) 3.3 Protocol for MIC Determination (ATCC Strains)
(§2) Tested reference compounds. Amikacin sulfate (Cat. No. 01693, Chem-Impex), Gentamicin sulfate (Cat. No. G4918, Sigma Aldrich), Azithromycin (Cat. No. 1046056, USP), Ceftazidime Pentahydrate (Cat. No. 1098130, USP), Ciprofloxacin (Cat. No. 1134313, USP), Meropenem (Cat. No. 1392454, USP), Rifampicin (Cat. No. R0079, TCI), Tobramycin (Cat. No. 1667508, USP), Vancomycin (Cat. No. 1709007 USP).
(§3) Microbial strains. Staphylococcus aureus ATCC 29213, Staphylococcus aureus ATCC BAA-1717, Escherichia coli ATCC BAA-1025, Klebsiella pneumoniae ATCC BAA-1705, Klebsiella pneumoniae ATCC BAA-2524, Pseudomonas aeruginosa ATCC 27853, Pseudomonas aeruginosa ATCC BAA-2108, Acinetobacter baumannii ATCC BAA-1800.
(§4) Culture media and equipment. BBL™ Mueller Hinton Broth (REF 275730, Lot. 7009699, Becton Dickinson), Mueller Hinton Agar 2 (Ref. No. 97580-500G-F, Lot. No. BCBV4646, Sigma), Dulbecco's Modified Eagle's Medium (DMEM) (Cat. No. 41966-029, Gibco), Minimum Essential Medium (MEM) (Cat. No. 42360-024, Gibco), Fetal bovine serum (FBS) (Cat. No. F7524, Sigma), Non-essential amino acids (NEAA) (100×, Cat. No. 11140-035, Gibco), Sodium Pyruvate (100 mM, 100×, Cat. No. 11360-039, Gibco), Staurosporine (Cat. No. B50188, Biotrend), Cellstar 96-well plates U-bottom (Cat. No. 650180, Lot. No. E14123EB, Greiner Bio-one), CellTiter-Glo (Cat. No. G7573, Promega), 96-well plate V-bottom (Cat. No. 651201, Greiner), 96-well clear plate, U-bottom, (Cat. No. 650180, Greiner), 96-well white plate with clear bottom (Cat. No. 655098, Greiner), 96-well deep well plate 1 mL (Cat. No. 278606, Nunc), Sodium Pyruvate (100 mM, 100×, Gibco, Cat #11360-039), Incubator (Binder), Laminar flow (Thermo Scientific), BioPhotometer (Eppendorf); DEN-1B (McFarland Densitometer, Biosan); McFarland standards (polymer microparticle suspension, Biosan).
(§5) Compound preparation. The test compounds and reference antibiotics were prepared according to CLSI guidelines (Clinical and Laboratory Standards Institute (CLSI); Methods for dilution antimicrobial susceptibility tests for bacteria that grow aerobically; approved standard—ninth edition, M07-A9, Vol. 32, No. 2, 2012) as 5 mg/mL stock solutions in DMSO. Out of these DMSO solutions, 43.5 μL was transferred to 1656.5 μL of MH media in a deep well plate. Out of these working solutions 100 μL was transferred to wells in the third column of 96-well plates. Plates were previously filled with 50 μL of MH media in all wells except for the wells in the third column. After compound and antibiotic addition, 50 μL was transferred from the third to the fourth column, then from the fourth to the fifth and so on. In this manner, the compounds and antibiotics were plated in 96-well plate in serial two-fold dilutions giving a final concentration range of 64-0.125 μg/mL.
(§6) Preparation of microorganisms. Designations used for clinical isolates were from the Fidelta strain collection bank. Microorganisms used were all revived from skim milk storage at −70° C. by plating them on MH agar plates. The following day the single colony of each microorganism was again streaked on fresh agar plates. The next day, using the direct colony suspension method, broth solutions that achieve turbidity equivalent to 0.5 McFarland standard for each microorganism were prepared. […] Out of these suspensions, actual inoculums were prepared by diluting them 100× with MH media giving a final microorganism count of 2-8×10^5 CFU/mL. For each strain of microorganisms, 20 mL of these inoculum solutions were prepared. From the second to the twelfth column of 96-well plates, 50 μL of these solutions were transferred per well. To the first column, 50 μL per well of pure growth media was added. In this manner the first column was used as sterility control of media, the second column was used as control of microorganism's growth and the rest of the plate was used for MIC determination. All plates were incubated for 16-24 h at 37° C. […]

[2] = system: P. aeruginosa ATCC BAA-2108; assay: MIC 90, resistant ATCC strains of the ESKAPE panel; type: cell-based; details: Pseudomonas aeruginosa, ATCCBAA2108, MDR
Description: as §1, §2, §3, §4, §5, §6

[3] = system: A. baumannii ATCC BAA-1800; assay: MIC 90, resistant ATCC strains of the ESKAPE panel; type: cell-based; details: Acinetobacter baumannii, ATCCBAA1800, MDR
Description: as §1, §2, §3, §4, §5, §6

S. aureus ATCC BAA-1717 = assay: MIC 90, resistant ATCC strains of the ESKAPE panel; type: cell-based; details: Staphylococcus aureus, MRSA
Description: as §1, §2, §3, §4, §5, §6

[4] = system: K. pneumoniae ATCC BAA-2524; assay: MIC 90, resistant ATCC strains of the ESKAPE panel; type: cell-based; details: Klebsiella pneumoniae, ATCCBAA2524, OXA-48
Description: as §1, §2, §3, §4, §5, §6

S. aureus ATCC 29213 = assay: MIC 90, broth micro-dilution, ATCC strains; type: cell-based, Staphylococcus aureus
Description: as §1, §2, §3, §4, §5, §6

P. aeruginosa ATCC 27853 = assay: MIC 90, broth micro-dilution, ATCC strains; type: cell-based, Pseudomonas aeruginosa
Description: as §1, §2, §3, §4, §5, §6

[5] = system: E. coli ATCC BAA-1025 (= BL 21); assay: MIC 90, broth micro-dilution, ATCC strains; type: cell-based, Escherichia coli
Description: as §1, §2, §3, §4, §5, §6

Row | Compound | MIC90 [1] [mg/L] | MIC90 [2] [mg/L] | MIC90 [3] [mg/L] | MIC90 (S. aureus ATCC BAA-1717) [mg/L] | MIC90 [4] [mg/L] | MIC90 (S. aureus ATCC 29213; Staphylococcus aureus, ATCC29213, read-out: MIC 90) [µM] | MIC90 (P. aeruginosa ATCC 27853; Pseudomonas aeruginosa, ATCC27853, read-out: MIC 90) [µM] | MIC90 ([5]; Escherichia coli, ATCCBAA1025, read-out: MIC 90) [µM] | MIC90 (S. aureus ATCC 29213) [µM] | MIC90 (P. aeruginosa ATCC 27853) [µM] | MIC90 [5] [µM]
1 | N=C(NCCN)NC1C(O)[C@@H](CO)OC(OC2C(F)[C@H](O[C@H]3OC(CN)[C@@H](O)CC3N)C(N)C[C@H]2NC(=O)[C@@H](O)CCN)[C@@H]1O (stereo partly drawn) [ABX5020, Tobra-AHB-F-Gua-2-amino-ethyl] | 8 (≈ 12.2 µM) | 2 (≈ 3.05 µM) | 32 (≈ 48.8 µM) | 0.25 (≈ 0.381 µM) | 0.5 (≈ 0.763 µM) | 0.25 (≈ 0.164 µg/mL) | 0.25 (≈ 0.164 µg/mL) | 1 (≈ 0.656 µg/mL) | – | – | –
2 | N=C(NC[C@@H]1CCNC1)NC1[C@@H](O)C(OC2[C@@H](F)[C@H](O[C@H]3OC(CN)[C@@H](O)CC3N)C(N)C[C@H]2NC(=O)[C@@H](O)CCN)O[C@H](CO)[C@H]1O (stereo partly drawn) [ABX5039, Tobra-AHB-F-Gua (R) pyrrolidine-3-ylmethyl] | 4 (≈ 5.75 µM) | 8 (≈ 11.5 µM) | 16 (≈ 23 µM) | 0.5 (≈ 0.719 µM) | 0.5 (≈ 0.719 µM) | – | – | – | – | – | –
3 | N=C(NCCO)NC1[C@@H](O)C(OC2[C@@H](F)[C@H](O[C@H]3OC(CN)[C@@H](O)CC3N)C(N)C[C@H]2NC(=O)[C@@H](O)CCN)O[C@H](CO)[C@H]1O (stereo partly drawn) [ABX5029, Tobra-AHB-F-Gua 2-hydroxy-ethyl] | 4 (≈ 6.09 µM) | 4 (≈ 6.09 µM) | 16 (≈ 24.4 µM) | 0.5 (≈ 0.761 µM) | 0.25 (≈ 0.381 µM) | – | – | – | – | – | –
4 | N=C(N)NC1[C@@H](O)C(OC2[C@@H](F)[C@H](O[C@H]3OC(CN)[C@@H](O)[C@H](O)C3N)C(N)C[C@H]2NC(=O)[C@@H](O)CCN)O[C@H](CO)[C@H]1O (stereo partly drawn) [ABX4006, KanaB-AHB-F-Gua] | 2 (≈ 3.18 µM) | 16 (≈ 25.5 µM) | 16 (≈ 25.5 µM) | 4 (≈ 6.36 µM) | < 0.125 | – | – | – | – | – | –
5 | N=C(N)NC1[C@@H](O)C(OC2[C@@H](O)[C@H](O[C@H]3OC(CN)[C@@H](O)CC3N)C(N)C[C@H]2NC(=O)[C@@H](O)CCN)O[C@H](CO)[C@H]1O (stereo partly drawn) [ABX5005, Tobra-AHB-Gua] | – | – | – | – | – | – | – | – | 1 (≈ 0.611 µg/mL) | 4 (≈ 2.44 µg/mL) | 2 (≈ 1.22 µg/mL)
6 | N=C(NC[C@@H]1CNCCO1)NC1[C@@H](O)C(OC2[C@@H](F)[C@H](O[C@H]3OC(CN)[C@@H](O)CC3N)C(N)C[C@H]2NC(=O)[C@@H](O)CCN)O[C@H](CO)[C@H]1O (stereo partly drawn) [ABX5040, Tobra-AHB-F-Gua (S) morpholin-2-yl methyl] | 8 (≈ 11.2 µM) | 8 (≈ 11.2 µM) | 32 (≈ 45 µM) | 0.5 (≈ 0.702 µM) | 0.5 (≈ 0.702 µM) | – | – | – | – | – | –
7 | NCC[C@H](O)C(=O)N[C@@H]1CC(N)[C@@H](O[C@H]2OC(CN)[C@@H](O)[C@@H](O)C2N)[C@H](O)C1OC1O[C@H](CO)[C@@H](O)C(N)[C@H]1O (stereo partly drawn) [ABX4002, 3′Epi-KanaB-AHB] | – | – | – | – | – | – | – | – | 2 (≈ 1.17 µg/mL) | 4 (≈ 2.34 µg/mL) | 8 (≈ 4.68 µg/mL)
8 | N=C(NC[C@H]1CCNC1)NC1[C@@H](O)C(OC2[C@@H](F)[C@H](O[C@H]3OC(CN)[C@@H](O)CC3N)C(N)C[C@H]2NC(=O)[C@@H](O)CCN)O[C@H](CO)[C@H]1O (stereo partly drawn) [ABX5042, Tobra-AHB-F-Gua (S) pyrrolidine-3-ylmethyl] | 4 (≈ 5.75 µM) | 8 (≈ 11.5 µM) | 32 (≈ 46 µM) | 0.5 (≈ 0.719 µM) | 0.5 (≈ 0.719 µM) | – | – | – | – | – | –
9 | N=C(N)N[C@@H]1[C@@H](O)[C@@H](O[C@@H]2[C@@H](O)[C@H](O[C@H]3O[C@H](CN)[C@@H](O)[C@@H](O)[C@H]3N)[C@@H](N)C[C@H]2NC(=O)[C@@H](O)CCN)O[C@H](CO)[C@H]1O [ABX4005, 3′Epi-KanaB-AHB-Gua] | – | – | – | – | – | – | – | – | 2 (≈ 1.25 µg/mL) | 4 (≈ 2.51 µg/mL) | 8 (≈ 5.01 µg/mL)
